Patent publication US20090298903A1, “USE OF TETRAMIC ACID DERIVATIVES FOR INSECT CONTROL” (priority 2006, published 2009)

How the values were obtained:
Type in all cases: in vivo
[1] = system: Thrips tabaci; experiment: Example 6: onions against Thrips tabaci; settings: population on leaves
Method: Plots 15 m^2 in size which are planted with onions are treated, in two replications, against Thrips tabaci. The application is effected with a knapsack sprayer which is operated with pressurized air. Here, the active substances Example (I-4), in a tank mix together with 0.2% a.s. rapeseed oil methyl ester (500 EW) and the commercial standard dimethoate and (380 EC), are tested at the specified application rates in a tank mix with 0.9% a.s. E-actipron (900 EC). The water application rate is 300 l/ha.
The test was evaluated 43 and 62 days after the treatment by scoring the destruction rate of the population on the leaves.

[2] = system: flea beetles (Phyllotreta sp.); experiment: Example 24: aubergines against flea beetles; settings: 7 d after the last of four treatments, larvae, Imidacloprid (100 SL) 100, (I-4) (100 OD) 70, Profenofos (500 EC) 500 g a.s./ha
Method: Plots approx. 12 m^2 in size which are planted with aubergines cv. “DLP” are treated, in three replications, against flea beetles (Phyllotreta sp.). The application is carried out with a knapsack sprayer which is operated with pressurized air. Here, the active substance Example (I-4) (100 OD) and the commercial standards Imidacloprid (100 SL) and Profenofos (500 EC) are applied at the specified application rates. Four applications are carried out at intervals of 7, 8 and 10 days, with a water application rate of 750 l/ha.
The test is evaluated 7 days after the last treatment by scoring the destruction rate of the larvae on the plants.

[3] = system: Empoasca biguttula; experiment: Example 12: cotton against Empoasca biguttula; settings: for Efficacy (% H + T) 3 d: 3 d after second treatment, Henderson and Tilton, Imidacloprid (SL 100) 30, (I-4) (240 SC + 0.2% rapeseed oil methyl ester) 24, Buprofezin (WP50) 50 g a.s./ha; for Efficacy (% H + T) 7 d: 7 d after second treatment; for Efficacy (% H + T) 7 d / Efficacy (% H + T) 14 d / Efficacy (% H + T) 21 d: Imidacloprid 30, (I-4) 24, Buprofezin 50 g a.s./ha; for Efficacy (% H + T) 14 d: 14 d after second treatment; for Efficacy (% H + T) 21 d: 21 d after second treatment
Method: Plots 10 m^2 in size which are planted with cotton are treated, in three replications, against Empoasca biguttula. The application is carried out with a knapsack sprayer operated with pressurized air. Here, the active substance Example (I-4) (240 SC), in a tank mix with 0.2% a.s. rapeseed oil methyl ester (500 EW), is tested against the commercial standards Imidacloprid (SL 100) and Buprofezin (WP50) at the specified application rates. Two applications are carried out at an interval of 7 days. The water application rate is 750 l/ha.
The test is evaluated 3, 7, 14 and 21 days after the second treatment by counting the live animals. Thereafter, the efficacy is calculated in percent, using the formula of Henderson and Tilton.

[4] = system: Carpocapsa pomonella; experiment: Example 30: apple trees against Carpocapsa pomonella, fruit damage; settings: 14 days after treatment 2, Imidacloprid (200 SC) 0.015 %, (I-4) (150 OD) 0.015 %
Method: Approx. 16-year-old apple trees cv. “Golden Delicious” are treated, in four replications, against Carpocapsa pomonella. The application is carried out with a spray diffuser. Here, the active substance Example (I-4) (150 OD) is applied in comparison with Imidacloprid (200 SC) at the specified application rates. Two applications are carried out at an interval of 16 days, with a water application rate of 1000 l/ha.
The test is evaluated 14 days after treatment 2 by scoring the fruit damage with the aid of the Abbott formula.

[5] = system: Thrips palmi; experiment: Example 9: cucumbers against Thrips palmi; settings: for Efficacy (% Abbott) 3 d: 3 d after treatment 1, nymphs on leaves, Imidacloprid (100 SL) 100, (I-4) (240 SC + 0.2% rapeseed oil methyl ester) 72 g a.s./ha, two applications, interval 8 days; for Efficacy (% Abbott) 8 d: 8 d after treatment 1, Imidacloprid 100, (I-4) 72 g a.s./ha; for Efficacy (% Abbott) 11 d: 11 d after treatment 1, Imidacloprid 100, (I-4) 72 g a.s./ha; for Efficacy (% Abbott) 15 d: 15 d after treatment 1, Imidacloprid 100, (I-4) 72 g a.s./ha
Method: Plots approximately 10 m^2 in size which are planted with cucumbers are treated, in three replications, against Thrips palmi. The application is carried out with a knapsack sprayer which is operated with pressurized air. Here, the active substance Example (I-4) (240 SC), in a tank mix with 0.2% a.s. rapeseed oil methyl ester (500 EW) and the commercial standard Imidacloprid (100 SL), is applied at the specified application rates. The application is carried out with a water application rate of […]. Two applications are carried out at an interval of 8 days.
The test is evaluated 3, 8, 11 and 15 days after treatment 1 by scoring the destruction rate of the animals (nymphs) on the leaves.

[6] = system: Leptinotarsa decemlineata; experiment: Example 23: potatoes against Leptinotarsa decemlineata
Method: Plots approx. 10 m^2 in size which are planted with potatoes “Quarta” are treated, in three replications, against Leptinotarsa decemlineata. The application is carried out with a knapsack sprayer operated with pressurized air. Here, the active substance Example (I-4) (240 SC), in a tank mix together with 0.2% a.s. rapeseed oil methyl ester (500 EW) and the commercial standard Deltamethrin (100 EC), is tested at the specified application rate. The water application rate is 300 l/ha.
The test is evaluated 3, 8 and 20 days after the treatment by scoring the destruction rate of the animals (larvae) on the plants.

[7] = system: Thrips palmi; experiment: Example 4: aubergines against Thrips palmi; settings: nymphs on leaves, (I-4) (240 SC + 0.2% rapeseed oil methyl ester) 0.0096 % a.s.; for Efficacy (% Abbott) 7 d after treatm. 3 / Efficacy (% Abbott) 14 d after treatm. 3 / Efficacy (% Abbott) 21 d after treatm. 3: Imidacloprid 0.01 % a.s.; for Efficacy (% Abbott) 4 d after treatm. 2: Imidacloprid (100 SL) 0.01 % a.s., three applications
Method: Plots 10 m^2 in size which are planted with aubergines cv. “Dumaguete Long Purple” are treated, in three replications, against Thrips palmi. The application is effected with a knapsack sprayer which is operated with pressurized air. Here, the active substance Example (I-4) (240 SC), in a tank mix together with 0.2% a.s. rapeseed oil methyl ester […] and the commercial standard Imidacloprid (100 SL), is tested at the specified application rates. The water application rate is 400 l/ha. Three applications are carried out at intervals of 8 and 7 days, respectively.
The test is evaluated in each case 4 days after treatment 2 and 7, 14 and 21 days after treatment 3 by scoring the destruction of the nymphs on the leaves.

Compound	Efficacy (% Abbott) 43 d ([1]; 43 d after treatment, Dimethoate (380 EC + 0.9% E-actipron) 380, (I-4) (+ 0.2% rapeseed oil methyl ester) 96 g a.s./ha) [% Abbott]	Efficacy (% Abbott) 62 d ([1]; 62 d after treatment, Dimethoate 380, (I-4) 96 g a.s./ha) [% Abbott]	Efficacy (% Abbott) 7 d [2] [% Abbott]	Efficacy (% H + T) 3 d [3] [% H + T]	Efficacy (% H + T) 7 d [3] [% H + T]	Efficacy (% H + T) 14 d [3] [% H + T]	Efficacy (% H + T) 21 d [3] [% H + T]	Efficacy (% Abbott) [4] [% Abbott]	Efficacy (% Abbott) 3 d [5] [% Abbott]	Efficacy (% Abbott) 8 d [5] [% Abbott]	Efficacy (% Abbott) 11 d [5] [% Abbott]	Efficacy (% Abbott) 15 d [5] [% Abbott]	Efficacy (% Abbott) 3 d ([6]; 3 d after treatment, larvae, Deltamethrin (100 EC) 75, (I-4) (240 SC + 0.2% rapeseed oil methyl ester) 72 g a.s./ha) [% Abbott]	Efficacy (% Abbott) 8 d ([6]; 8 d after treatment, Deltamethrin 75, (I-4) 72 g a.s./ha) [% Abbott]	Efficacy (% Abbott) 20 d ([6]; 20 d after treatment, Deltamethrin 75, (I-4) 72 g a.s./ha) [% Abbott]	Efficacy (% Abbott) 7 d after treatm. 3 [7] [% Abbott]	Efficacy (% Abbott) 14 d after treatm. 3 [7] [% Abbott]	Efficacy (% Abbott) 21 d after treatm. 3 [7] [% Abbott]	Efficacy (% Abbott) 4 d after treatm. 2 [7]
CCOC(=O)OC1=C(c2cc(C)ccc2C)C(=O)N[C@]12CC[C@@H](OC)CC2 [Example (I-4)]	83.0	84.5	89	92.1	92.9	84.4	72.6	73.7	64.5	91.0	80.4	70.1	53.3	72.7	84.4	75.0	82.8	90.6	82.9 % Abbott
O=[N+]([O-])NC1=NCCN1Cc1ccc(Cl)nc1 [Imidacloprid]			98	97.3	99.6	95.6	72.5	26.3	85.3	85.5	91.7	77.1				75.0	62.1	53.1	82.9. % Abbott
